Laboratory results published in patent US8895514B2, “Composition of tumor-associated peptides and related anti-cancer vaccine for the treatment of glioblastoma (GBM) and other cancers” (Immatics Biotechnologies GmbH, priority 2008, dated 2014).
Each block holds one molecule with its values, some of them ahead of it. Where no end group is shown, it is not given here.

Legend:
[1] = test system: CD8+ T cells; experiment: In vitro priming of CD8+ T cells with pMHC/anti-CD28 coated beads, tetramer readout; format: cell-based, human; details: for Positive donors/donors tested / Positive wells/wells tested: healthy donors, CD8+ cells stimulated with high density beads
Description: To perform in vitro stimulations by artificial antigen presenting cells (aAPC) loaded with peptide-MHC complex (pMHC) and anti-CD28 antibody, first we isolated PBMCs (peripheral blood mononuclear cells) from fresh HLA-A*02+ buffy coats by using standard density gradient separation medium (PAA, Cölbe, Germany). Buffy coats were either obtained from the Blood Bank Tübingen or from the Katharinenhospital Stuttgart. Isolated PBMCs were incubated overnight in T-cell medium (TCM) for human in vitro priming consisting of RPMI-Glutamax (Invitrogen, Karlsruhe, Germany) supplemented with 10% heat inactivated human AB serum (PAA, Cölbe, Germany), 100 U/ml Penicillin/100 μg/ml Streptomycin (Cambrex, Verviers, Belgium), 1 mM sodium pyruvate (CC Pro, Neustadt, Germany) and 20 μg/ml Gentamycin (Cambrex). CD8+ lymphocytes were isolated using the CD8+ MACS positive selection kit (Miltenyi, Bergisch Gladbach, Germany) according to the manufacturer's instructions.
800.000 beads/200 μl were coated in 96-well plates in the presence of 600 ng biotin anti-CD28 plus 200 ng relevant biotin-pMHC (high density beads) or 2 ng relevant plus 200 ng irrelevant (pMHC library) MHC (low density beads). Stimulations were initiated in 96-well plates by co-incubating 1×10^6 CD8+ T cells with 2×10^5 washed coated beads in 200 μl TCM supplemented with 5 ng/ml IL-12 (PromoCell) for 3-4 days at 37° C. Half of the medium was then exchanged by fresh TCM supplemented with 80 U/ml IL-2 and incubating was continued for 3-4 days at 37° C. This stimulation cycle was performed for a total of three times.
Results shown have been obtained by stimulation of CD8+ cells with high density beads. As different human serum lots may highly affect the immunogenicity results, only assays in which one and the same serum lot was used, were evaluated together.

[2] = test system: CD8+ T cells; experiment: as above; format: cell-based, human; details: small number of glioblastoma patients
[3] = out of 18 patients treated, recurrent GBM, intermediate results; cited from earlier work
[4] = target: HLA-A*0201 (Homo sapiens, UniProt P04439, /I218V/L300P/L318F/N151K/N90K/P208A/P217A/Q86G/Q94H/R138H/R169H/T345S); experiment: ELISA-based MHC refolding assay; format: binding
Description: The amount of de novo-folded HLA/peptide complexes was determined by a quantitative ELISA. Dissociation constants (KD values) were calculated using a standard curve recorded from dilutions of a calibrant HLA/peptide complex.

[5] = test system: HLA-DR broad antigens (HLA-DR1 to DR7); experiment: ProImmune REVEAL MHC:peptide binding assay; set-up: species or system human; details: relative to pass/fail control; MET-005 tested as two overlapping 15-mers
Description: The ProImmune REVEAL™ technology employs in vitro HLA-DR assembly assays to determine the on-rates for the MHC:peptide complex as one major determinant of the binding constant of individual peptides. The assay was performed by ProImmune (Oxford, UK). At a fixed time point, the amount of intact MHC:peptide complexes is measured and compared with the amount for a pass/fail control (relative weak binder). A strong, promiscuous HLA-DR binder is included as positive control. Values indicate amount of binding for the individual peptides and HLA-DR molecules relative to the pass/fail control.
In this assay, binding was compared to that of a pass/fail control binder, and to a positive control peptide for each HLA-DR antigen.

[6] = test system: anti-survivin T cells; experiment: Phase I/II vaccination study, T-cell response to Survivin peptide (IFN-g ELISPOT, +/-ICS); format: in vivo, human

Molecule: NLDTLMTYV (listed as Homo sapiens) [NLGN4X-001]
- Positive donors/donors tested [1]: 100%
- Positive wells/wells tested [1]: 62%
- in vitro immunogenicity in glioblastoma patients [2]: immunogenic to a similar extent compared with healthy donors

Molecule: KVFAGIPTV (listed as Homo sapiens) [PTP-005]
- Positive donors/donors tested [1]: 100%
- Positive wells/wells tested [1]: 52%

Molecule: LTFGDVVAV (listed as Homo sapiens) [FABP7-001]
- Positive donors/donors tested [1]: 100%
- Positive wells/wells tested [1]: 27%

Molecule: YVDPVITSI [MET-001]
- Positive donors/donors tested [1]: 67%
- Positive wells/wells tested [1]: 39%

Molecule: ALWAWPSEL (listed as Homo sapiens) [BCA-002]
- immunogenicity in comparison to another BCAN-derived peptide (IMA-BCA-001) [1]: very immunogenic
- Positive donors/donors tested [1]: 75%
- Positive wells/wells tested [1]: 35%
- in vitro immunogenicity in glioblastoma patients [2]: immunogenic to a similar extent compared with healthy donors

Molecule: GLWHHQTEV (listed as Homo sapiens) [NRCAM-001]
- Positive donors/donors tested [1]: 86%
- Positive wells/wells tested [1]: 39%

Molecule: AMG102: human neutralizing antibody against HGF
- patients with minor response [3]: 1
- patients with partial response [3]: 1

- HLA-DR antigens for which in vitro binding was obtained [5]: HLA-DR11
Molecule: TFSYVDPVITSISPKYG (listed as Homo sapiens) [MET-005, MET-derived elongated HLA class I TUMAP]
- HLA class I binding of the full-length elongated peptide [4]: does not possess HLA class I binding capacities

Molecule: AIIDGVESV (listed as Homo sapiens) [PTP-003]
- Positive donors/donors tested [1]: 50%
- Positive wells/wells tested [1]: 17%

- Kd ([4]; recombinant HLA-A*0201 with b2m, quantitative ELISA, read-out: Dissociation constant (KD) to HLA-A*0201): 2.05 nM
Molecule: CSCC[C@H](NC(=O)[C@@H](N)[C@@H](C)O)C(=O)N[C@@H](CC(C)C)C(=O)N[C@@H](C)C(=O)N[C@@H](CCCNC(=N)N)C(=O)N[C@@H](CC(C)C)C(=O)N[C@@H](C)C(=O)N[C@@H](CO)C(=O)N[C@@H](C)C(=O)O [CSP-001]
- Positive donors/donors tested [1]: 100%
- Positive wells/wells tested [1]: 57%

Molecule: SLWAGVVVL (listed as Homo sapiens) [CHI-001]
- Positive donors/donors tested [1]: 100%
- Positive wells/wells tested [1]: 63%
- in vitro immunogenicity in glioblastoma patients [2]: immunogenic to a similar extent compared with healthy donors

- HLA-DR antigens for which in vitro binding was obtained [5]: HLA-DR1, 3, 4 and 11
Molecule: TLGEFLKLDRERAKN (listed as Homo sapiens) [BIR-002]
- patients with induction of an anti-survivin T-cell response upon vaccination ([6]; among the 16 reacting patients): 12
- patients with pre existing anti-Survivin T cells ([6]; among the 16 reacting patients): 2
- immunogenicity in clinical trial in prostate cancer patients with different HLA-DR alleles ([6]; in vivo): broad immunogenicity
- patients who reacted to the peptide (IFN-g ELISPOT, +/-ICS) ([6]; of the 19 patients vaccinated, prostate carcinoma): 16

Molecule: AMTQLLAGV (listed as Homo sapiens) [TNC-001]
- Positive donors/donors tested [1]: 60%
- Positive wells/wells tested [1]: 30%

Molecule: KIQEILTQV (listed as Homo sapiens) [IGF2BP3-001]
- Positive donors/donors tested [1]: 50%
- Positive wells/wells tested [1]: 21%
